Results: ChEMBL document CHEMBL3885861, “Open TG-GATES”

Organism: Rattus norvegicus
Experiment: Open TG-GATES - Regimen: Daily Repeat
Type: toxicity, organism-based, Sprague-Dawley
Set-up: regimen Daily Repeat, gender Male, age 6 weeks
Conditions: in vivo, po, route gavage; for gamma-GTP / ALP / ALT / AST / BUN / CRE / Ca / Cl / DBIL / GLC / IP / K / LDH / Na / PL / RALB / TBIL / TC / TG / TP: tissue Plasma; for APTT / Bas / Eos / Fbg / Ht / Lym / MCH / MCHC / MCV / Mono / Neu / PT / Plat / RBC / Ret / WBC: tissue Blood; for KIDNEY_L / KIDNEY_R / KIDNEY_TOTAL: tissue Kidney; for LIVER: tissue Liver
[1] = 100 mg/kg, 72 h, dose level High, time 3 day
[2] = 100 mg/kg, […], dose level High, time 7 day
[3] = 100 mg/kg, […], dose level High, time 14 day
[4] = 100 mg/kg, […], dose level High, time 28 day

In the case of `Cc1cccc(Nc2cc(Cl)nc(SCC(=O)O)n2)c1C` [PIRINIXIC ACID], the gamma-GTP (30 mg/kg, […], dose level Middle, time 28 day) is reported as 1.2 IU/L, the TERMINAL_BW [1] is reported as 236.1 g and the APTT [1] is reported as 16.4 s. The Bas [1] was 0%, the Eos [1] was 1% and the Fbg [1] was 210.2 mg/dL. It also gave a Ht [1] of 39.4%, a Lym [1] of 73.4% and an MCH [1] of 21.2 pg. The MCHC [1] was 34%, the MCV [1] was 62.5 fL and the Mono [1] was 3%. For the same compound, the Neu [1] was 22%, the PT [1] was 12.2 s and the Plat [1] was 112.9 x10_4/uL. For the same compound, the RBC [1] was 630.2 x10_4/ul, the Ret [1] was 5.7% and the WBC [1] was 78.7 x10_2/uL. It also gave a KIDNEY_L [1] of 1.1 g, a KIDNEY_R [1] of 1.1 g and a KIDNEY_TOTAL [1] of 2.1 g. The LIVER [1] was 16.9 g, the ALP [1] was 1976.4 IU/L and the ALT [1] was 70.6 IU/L. For the same compound, the AST [1] was 103.4 IU/L, the BUN [1] was 15.8 mg/dL and the CRE [1] was 0.2 mg/dL. For the same compound, the Ca [1] was 10.8 mg/dL, the Cl [1] was 105.2 meq/L and the DBIL [1] was 0.022 mg/dL. It also gave a GLC [1] of 192.2 mg/dL, an IP [1] of 7.3 mg/dL and a K [1] of 4.1 meq/L. For the same compound, the LDH [1] was 189.6 IU/L, the Na [1] was 144 meq/L and the PL [1] was 116 mg/dL. For the same compound, the RALB [1] was 2.7 g/dL, the TBIL [1] was 0.028 mg/dL and the TC [1] was 59 mg/dL. The TG [1] was 34 mg/dL, the TP [1] was 5.4 g/dL and the gamma-GTP [1] was 1 IU/L. It also gave a TERMINAL_BW [2] of 275.8 g, a TERMINAL_BW [3] of 297.8 g and a TERMINAL_BW [4] of 351.6 g. For the same compound, the APTT [2] was 15.4 s, the Bas [2] was 0% and the Eos [2] was 0.8%. For the same compound, the Fbg [2] was 225 mg/dL, the Ht [2] was 36.2% and the Lym [2] was 76.6%. It also gave an MCH [2] of 21.4 pg, an MCHC [2] of 34.3% and an MCV [2] of 62.4 fL. The Mono [2] was 3.2%, the Neu [2] was 19% and the PT [2] was 12.5 s. For the same compound, the Plat [2] was 129.5 x10_4/uL, the RBC [2] was 580.4 x10_4/ul and the Ret [2] was 5.9%. It also gave a WBC [2] of 116.4 x10_2/uL, an APTT [3] of 17.3 s and a Bas [3] of 0%. It also gave an Eos [3] of 0.8%, a Fbg [3] of 207 mg/dL and a Ht [3] of 38.8%. The Lym [3] was 75.4%, the MCH [3] was 20.3 pg and the MCHC [3] was 34.6%. For the same compound, the MCV [3] was 58.7 fL, the Mono [3] was 3.6% and the Neu [3] was 19.4%. It also gave a PT [3] of 12.9 s, a Plat [3] of 121.9 x10_4/uL and an RBC [3] of 661.2 x10_4/ul. The Ret [3] was 4.3%, the WBC [3] was 147.9 x10_2/uL and the APTT [4] was 16.6 s. The Bas [4] was 0%, the Eos [4] was 1.2% and the Fbg [4] was 216.6 mg/dL. The Ht [4] was 39.4%, the Lym [4] was 74.2% and the MCH [4] was 18.8 pg. It also gave an MCHC [4] of 35%, an MCV [4] of 53.7 fL and a Mono [4] of 4%. The Neu [4] was 19.6%, the PT [4] was 12.4 s and the RBC [4] was 734.2 x10_4/ul. For the same compound, the Ret [4] was 2.5%, the WBC [4] was 118.8 x10_2/uL and the KIDNEY_L [2] was 1.2 g. The KIDNEY_R [2] was 1.2 g, the KIDNEY_TOTAL [2] was 2.3 g and the KIDNEY_L [3] was 1.3 g. It also gave a KIDNEY_R [3] of 1.3 g, a KIDNEY_TOTAL [3] of 2.6 g and a KIDNEY_L [4] of 1.6 g. The KIDNEY_R [4] was 1.6 g, the KIDNEY_TOTAL [4] was 3.1 g and the LIVER [2] was 24.1 g. The LIVER [3] was 26.1 g, the LIVER [4] was 30.8 g and the ALP [2] was 1688.2 IU/L. For the same compound, the ALT [2] was 46.4 IU/L, the AST [2] was 66.4 IU/L and the BUN [2] was 18.8 mg/dL. For the same compound, the CRE [2] was 0.2 mg/dL, the Ca [2] was 11.3 mg/dL and the Cl [2] was 102.8 meq/L. For the same compound, the DBIL [2] was 0.014 mg/dL, the GLC [2] was 201.8 mg/dL and the IP [2] was 7.4 mg/dL. It also gave a K [2] of 4 meq/L, an LDH [2] of 142 IU/L and a Na [2] of 142 meq/L. The PL [2] was 143 mg/dL, the RALB [2] was 3 g/dL and the TBIL [2] was 0.026 mg/dL. For the same compound, the TC [2] was 69.4 mg/dL, the TG [2] was 52 mg/dL and the TP [2] was 6.1 g/dL. The gamma-GTP [2] was 0.6 IU/L, the ALP [3] was 1872.4 IU/L and the ALT [3] was 49.6 IU/L. It also gave an AST [3] of 75 IU/L, a BUN [3] of 19.4 mg/dL and a CRE [3] of 0.2 mg/dL. The Ca [3] was 10.4 mg/dL, the Cl [3] was 102.8 meq/L and the DBIL [3] was 0.022 mg/dL. The GLC [3] was 189.6 mg/dL, the IP [3] was 7.1 mg/dL and the K [3] was 3.8 meq/L. The LDH [3] was 141 IU/L, the Na [3] was 141.8 meq/L and the PL [3] was 149.6 mg/dL. It also gave an RALB [3] of 2.9 g/dL, a TBIL [3] of 0.032 mg/dL and a TC [3] of 74.8 mg/dL. For the same compound, the TG [3] was 44.4 mg/dL, the TP [3] was 6.1 g/dL and the gamma-GTP [3] was 1.2 IU/L. The ALP [4] was 1888.4 IU/L, the ALT [4] was 41.8 IU/L and the AST [4] was 65.8 IU/L. The BUN [4] was 17.2 mg/dL, the CRE [4] was 0.2 mg/dL and the Ca [4] was 10.8 mg/dL. It also gave a Cl [4] of 102.2 meq/L, a DBIL [4] of 0.008 mg/dL and a GLC [4] of 189.2 mg/dL. It also gave an IP [4] of 7.6 mg/dL, a K [4] of 3.7 meq/L and an LDH [4] of 109 IU/L. For the same compound, the Na [4] was 141.8 meq/L, the PL [4] was 147.4 mg/dL and the RALB [4] was 3 g/dL. The TBIL [4] was 0.048 mg/dL, the TC [4] was 80 mg/dL and the TG [4] was 43.6 mg/dL. For the same compound, the TP [4] was 6.6 g/dL and the gamma-GTP [4] was 1 IU/L.
